Data reported in US20140113949A1, “METHODS FOR REDUCING NEURODEGENERATION” (NESTEC S.A., priority 2011, published 2014).

What was measured:
mTOR = mTOR mRNA expression by semi-quantitative qPCR in MDCK cells; type: cell-based, Canine; conditions: mRNA normalized to TATA box binding protein
Protocol: (§1) Cell Culture procedure: Commercially available Madin Darby Canine Kidney (MDCK) cells were obtained from ATCC as a stock suspension of immortalized cells. MDCK cells were cultured at 37° C. in an atmosphere of 95% air/5% CO2 and Dulbecco's Modified Eagle Medium (DMEM) media containing 10% fetal calf serum and 1% antibiotic/antimicrobial solution (DMEM-loaded). The media was changed and cells passed every 1 to 2 days using a solution containing 0.05% trypsin. For RNA extraction, cells were plated at a seeding density of 50,000 to 60,000 cells/cm^2 in 35 mm dishes. Twenty-four hours after seeding, media was changed to either control (DMEM-loaded) or test media (DMEM-loaded+1 nM melatonin). Cells were harvested 1, 3, or 5 days after exposure to control or test media. Media was changed in the remaining dishes on the days of cell harvesting. Total RNA was harvested from MDCK cell lysates using RNAlater RNA stabilization reagent and following the manufacturer's directions (Ambion, Austin, Tex.). mRNA transcripts of mTOR, S6 Kinase, and TATA box binding protein genes were analyzed by semi-quantitative qPCR on days 1, 3, and 5 of media treatment. TATA box binding protein gene transcript was used to normalize the expression of mTOR and S6 Kinase, as it is widely used as a “housekeeping” gene. The procedure in Example 1 was repeated.

S6 Kinase = S6 Kinase mRNA expression by semi-quantitative qPCR in MDCK cells; type: cell-based, Canine; conditions: mRNA normalized to TATA box binding protein
Protocol: as §1

[1] = Trial 1, Day 1, control media + 1 nM melatonin
[2] = Trial 1, Day 3, control media + 1 nM melatonin
[3] = Trial 1, Day 5, control media + 1 nM melatonin
[4] = Trial 2, Day 1, control media + 1 nM melatonin
[5] = Trial 2, Day 3, control media + 1 nM melatonin
[6] = Trial 2, Day 5, control media + 1 nM melatonin

COc1ccc2[nH]cc(CCNC(C)=O)c2c1 [melatonin, 5-methoxy-N-acetyltryptamine]
mTOR Induction (mTOR; [1]): 0.93 | mTOR Induction (mTOR; [2]): 0.76 | mTOR Induction (mTOR; [3]): 0.49 | mTOR Induction (mTOR; [4]): 0.98 | mTOR Induction (mTOR; [5]): 1.02 | mTOR Induction (mTOR; [6]): 1.01 | S6 Kinase Induction (S6 Kinase; [1]): 1.14 | S6 Kinase Induction (S6 Kinase; [2]): 0.66 | S6 Kinase Induction (S6 Kinase; [3]): 0.51 | S6 Kinase Induction (S6 Kinase; [4]): 1.05 | S6 Kinase Induction (S6 Kinase; [5]): 0.82 | S6 Kinase Induction (S6 Kinase; [6]): 0.75
